# In patent US7998965B2, “Glutamate aggrecanase inhibitors” (Wyeth LLC, priority 2005, dated 2011):
# Assays:
# recombinant human MMP-2 = target: T1, recombinant human MMP-2 (Homo sapiens, UniProt P08253); experiment: In vitro fluorescence assay of MMP-2 activity
# T1 sequence (P08253 110-660): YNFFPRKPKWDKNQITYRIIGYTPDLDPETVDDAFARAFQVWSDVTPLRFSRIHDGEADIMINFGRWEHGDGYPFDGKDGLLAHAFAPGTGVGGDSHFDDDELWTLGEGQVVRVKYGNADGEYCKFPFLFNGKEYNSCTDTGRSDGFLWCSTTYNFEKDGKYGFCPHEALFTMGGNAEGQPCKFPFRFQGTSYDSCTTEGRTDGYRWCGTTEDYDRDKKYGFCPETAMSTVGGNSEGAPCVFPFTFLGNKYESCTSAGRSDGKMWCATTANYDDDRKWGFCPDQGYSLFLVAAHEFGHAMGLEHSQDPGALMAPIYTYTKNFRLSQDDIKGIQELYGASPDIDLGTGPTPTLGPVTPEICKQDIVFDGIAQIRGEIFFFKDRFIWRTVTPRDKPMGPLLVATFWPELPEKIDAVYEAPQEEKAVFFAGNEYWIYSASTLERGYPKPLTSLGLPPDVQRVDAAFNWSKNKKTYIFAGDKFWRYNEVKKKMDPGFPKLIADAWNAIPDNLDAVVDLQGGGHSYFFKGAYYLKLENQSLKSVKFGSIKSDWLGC
# Procedure: A continuous assay was used in which the substrate is a synthetic peptide containing a fluorescent group (7-methoxycoumarin; Mca), which is quenched by energy transfer to a 2,4-dinitrophenyl group. […] The source of enzyme in the assay was the recombinant human MMP-2 (66 kDa; Oncogene Research Products (catalog number PF023 from Calbiochem)). The substrate used was the peptide Mca-PQGL-(3-[2,4-dinitrophenyl]-L-2,3-diaminopropionyl)-AR-OH. The assay buffer consisted of 50 mM Hepes (pH 7.4), 100 mM NaCl, 5 mM CaCl2, and 0.005% Brij-35. […] The plates were then incubated at 30° C. for 15 minutes. The enzymatic reactions were initiated by adding the substrate to a final concentration of 20 μM, and mixing 10 times with a pipette. The final DMSO concentration in the assay was 6.0%.
# Plots of the inhibitor concentration vs. the percent inhibition were fit to the following equation: y=(a−d)/[^1+(x/c)^b]+d, a general sigmoidal curve with Hill slope, a to d. x is the inhibitor concentration under test. y is the percent inhibition. a is the limiting response as x approaches zero. As x increases without bound, y tends toward its limit d. c is the inflection point (IC50) for the curve. That is, y is halfway between the lower and upper asymptotes when x=c. b is the slope factor or Hill coefficient.
# [1] = target: T2, recombinant human catalytic domain of MMP-14 (Homo sapiens, UniProt P50281); experiment: In vitro fluorescence assay of MMP-14 activity; type: biochemical; conditions: Table 1; unit inferred
# T2 construct: 177 amino acids corresponding to Tyr89-Gly265 of mature human enzyme; purchased Chemicon International, Inc. CC1041
# [2] = target: T3, purified recombinant human Aggrecanase-2 (Ag2t-Phe628-Strep) (Homo sapiens, UniProt Q9UNA0); experiment: In vitro fluorescence screen for Aggrecanase-2 inhibitors; type: biochemical; conditions: Table 1; read-out: Agg 2 IC50
# T3 construct: the form used is denoted as Ag2t-Phe628-Strep (MW=41,737)
# T3 sequence (Q9UNA0 262-628): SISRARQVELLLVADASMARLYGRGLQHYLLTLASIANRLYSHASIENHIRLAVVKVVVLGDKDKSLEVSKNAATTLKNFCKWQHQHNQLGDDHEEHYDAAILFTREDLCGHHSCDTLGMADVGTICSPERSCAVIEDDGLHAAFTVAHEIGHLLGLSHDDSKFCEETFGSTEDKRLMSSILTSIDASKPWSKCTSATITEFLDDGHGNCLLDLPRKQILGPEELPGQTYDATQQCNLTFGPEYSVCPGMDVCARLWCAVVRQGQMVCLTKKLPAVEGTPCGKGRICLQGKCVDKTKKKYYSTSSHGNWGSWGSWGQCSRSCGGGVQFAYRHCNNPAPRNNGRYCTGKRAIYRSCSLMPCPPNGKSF
# [3] = system: bovine articular cartilage treated with Interleukin 1 alpha (IL-1α); experiment: Bovine articular cartilage explant cultures: inhibition of degradation of proteoglycan; type: cell-based; conditions: inhibitory effect expressed as percentage, concentration not printed
# Procedure, shortened: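 Bovine metacarpal cartilage discs (6 mm), equilibrated in serum-free DMEM-based medium, were treated with 5 ng/ml IL-1 plus compound (working solutions 0.1-10 μg/ml), with medium collected and replaced on days 1, 2 and 3. Released proteoglycan was measured by DMMB absorbance at 520 nm against chondroitin sulphate standards, expressed as μg per mg cartilage, and inhibition given as percentage.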
# [4] = target: T4, recombinant human catalytic domain of MMP-13 (Homo sapiens, UniProt P45452); experiment: In vitro fluorescence assay of MMP-13 activity; type: biochemical; conditions: Table 1; for IC50: unit inferred
# T4 construct: catalytic domain of MMP-13 (165 amino acids, residues 104-268, 19 kDa)
# [5] = target: T5, purified recombinant human Aggrecanase-1 (rAgg1) (Homo sapiens, UniProt O75173); experiment: In vitro fluorescence screen for Aggrecanase-1 inhibitors; type: biochemical; conditions: Table 1; for IC50: read-out: Agg1 IC50; for Ki: enzyme not given, column follows Agg1 IC50, read-out: Ki
# T5 sequence (O75173 213-837): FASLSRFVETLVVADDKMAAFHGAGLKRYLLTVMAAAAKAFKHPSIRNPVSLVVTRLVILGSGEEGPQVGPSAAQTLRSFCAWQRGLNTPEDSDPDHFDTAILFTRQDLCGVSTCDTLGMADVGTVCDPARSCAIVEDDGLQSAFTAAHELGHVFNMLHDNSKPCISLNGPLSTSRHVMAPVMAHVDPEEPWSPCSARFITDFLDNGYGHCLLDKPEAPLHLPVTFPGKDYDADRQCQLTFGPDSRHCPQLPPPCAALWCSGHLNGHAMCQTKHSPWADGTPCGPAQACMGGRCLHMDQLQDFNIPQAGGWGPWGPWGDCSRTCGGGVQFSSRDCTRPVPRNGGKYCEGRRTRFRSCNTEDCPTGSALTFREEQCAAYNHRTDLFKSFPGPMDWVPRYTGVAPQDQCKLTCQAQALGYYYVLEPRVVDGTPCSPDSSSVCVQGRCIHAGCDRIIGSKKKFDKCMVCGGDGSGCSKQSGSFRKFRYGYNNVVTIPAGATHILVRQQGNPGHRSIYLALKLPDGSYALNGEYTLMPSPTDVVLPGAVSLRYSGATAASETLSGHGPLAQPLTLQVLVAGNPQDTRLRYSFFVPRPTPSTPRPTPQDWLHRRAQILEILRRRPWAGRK
# MMP-1 = target: T6, MMP-1 (Homo sapiens, UniProt P03956); experiment: MMP-1 of Table 1; type: biochemical; conditions: for IC50: unit inferred; for MMP-1: unit not given
# T6 sequence (P03956 100-469): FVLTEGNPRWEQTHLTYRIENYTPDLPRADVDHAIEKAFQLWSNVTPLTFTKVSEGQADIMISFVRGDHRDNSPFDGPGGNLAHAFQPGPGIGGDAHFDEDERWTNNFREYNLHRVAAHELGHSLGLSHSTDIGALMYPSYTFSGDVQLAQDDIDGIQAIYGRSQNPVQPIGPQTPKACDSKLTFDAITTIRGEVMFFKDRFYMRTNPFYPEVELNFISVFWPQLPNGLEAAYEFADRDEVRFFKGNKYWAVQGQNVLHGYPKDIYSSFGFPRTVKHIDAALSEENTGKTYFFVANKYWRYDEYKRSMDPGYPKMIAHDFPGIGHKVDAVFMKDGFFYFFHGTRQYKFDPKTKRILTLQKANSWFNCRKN
# [6] = Table 1, first of two columns headed bovine
# [7] = Table 1, second of two columns headed bovine
SMILES,IC50 (recombinant human MMP-2) [µM],IC50 [1] [µM],IC50 [2] [µM],"bovine [3, 6] [%]","bovine [3, 7] [%]",IC50 [4] [µM],IC50 [5] [µM],IC50 (MMP-1) [µM],Ki [5] [µM],MMP-1 (MMP-1),MMP-13 ([4]; unit not given)
"O=C(O)CC[C@H](NC(=O)c1ccc(-c2ccccc2)cc1)C(=O)NC1C2CC3CC(C2)CC1C3 (stereo partly drawn) [Example 8H, N^1-2-adamantyl-N^2-(1,1′-biphenyl-4-ylcarbonyl)-L-α-glutamine]",3.31,~25,0.266,85,67,~50,0.2,> 100,,,
"O=C(O)CC[C@H](NC(=O)c1ccc(-c2ccccc2)cc1)C(=O)NCc1cccc(I)c1 [Example 8JJ, N^2-(1,1′-biphenyl-4-ylcarbonyl)-N^1-(3-iodobenzyl)-L-α-glutamine]",27,> 200,1.1,70,17,17,0.045,> 200,0.033,,
"CCCCCCCNC(=O)[C@H](CCC(=O)O)NC(=O)c1ccc(-c2ccccc2)cc1 [Example 8JJJ, N^2-(1,1′-biphenyl-4-ylcarbonyl)-N^1-heptyl-L-α-glutamine]",> 20,> 200,0.3,74,26,30,0.054,> 200,0.054,,
"COc1ccc(CCNC(=O)[C@H](CCC(=O)O)NC(=O)c2ccc(-c3ccccc3)cc2)cc1OC [Example 8L, N^2-(1,1′-biphenyl-4-ylcarbonyl)-N^1-[2-(3,4-dimethoxyphenyl)ethyl]-L-α-glutamine]",10.5,21.5,0.189,87,79,~50,0.055,> 100,,,
"COc1ccc(CCNC(=O)[C@H](CCC(=O)O)NC(=O)c2ccc(-c3ccccc3)cc2)cc1 [Example 8M, N^2-(1,1′-biphenyl-4-ylcarbonyl)-N^1-[2-(4-methoxyphenyl)ethyl]-L-α-glutamine]",8,13,0.856,85,17,~50,0.12,> 100,,,
"O=C(O)CC[C@H](NC(=O)c1ccc(-c2ccccc2)cc1)C(=O)NCc1ccc(F)c(C(F)(F)F)c1 [Example 8NNN, N^2-(1,1′-biphenyl-4-ylcarbonyl)-N^1-[4-fluoro-3-(trifluoromethyl)benzyl]-L-α-glutamine]",> 10,> 50,1.75,60,0,14,0.1,> 50,0.219,,
"Cc1cccc(CNC(=O)[C@H](CCC(=O)O)NC(=O)c2ccc(-c3ccccc3)cc2)c1 [Example 8O, N^2-(1,1′-biphenyl-4-ylcarbonyl)-N^1-(3-methylbenzyl)-L-α-glutamine]",5,~22,1.3,69,34,31.4,0.075,,0.082,no inh,
"COc1cccc(CNC(=O)[C@H](CCC(=O)O)NC(=O)c2ccc(-c3ccccc3)cc2)c1 [Example 8Q, N^2-(1,1′-biphenyl-4-ylcarbonyl)-N^1-(3-methoxybenzyl)-L-α-glutamine]",6.1,~22,0.4,66,24,37.3,0.011,,0.031,no inh,
"COc1cc(CNC(=O)[C@H](CCC(=O)O)NC(=O)c2ccc(-c3ccccc3)cc2)cc(OC)c1OC [Example 8R, N^2-(1,1′-biphenyl-4-ylcarbonyl)-N^1-(3,4,5-trimethoxybenzyl)-L-α-glutamine]",10.4,~22,0.05,86,78,42.4,0.016,,0.005,no inh,
"O=C(O)CC[C@H](NC(=O)c1ccc(-c2ccccc2)cc1)C(=O)NCc1ccc(Cl)cc1Cl [Example 8S, N^2-(1,1′-biphenyl-4-ylcarbonyl)-N^1-(2,4-dichlorobenzyl)-L-α-glutamine]",3.13,~25,1.3,51,40,> 200,0.15,,0.245,no inh,
"CSc1ccc(CNC(=O)[C@H](CCC(=O)O)NC(=O)c2ccc(-c3ccccc3)cc2)cc1 [Example 8V, N^2-(1,1′-biphenyl-4-ylcarbonyl)-N^1-[4-(methylthio)benzyl]-L-α-glutamine]",3.43,~30,1.1,73,45,~67,0.16,> 100,,,
"CN(C)c1ccc(CNC(=O)[C@H](CCC(=O)O)NC(=O)c2ccc(-c3ccccc3)cc2)cc1 [Example 8ZZZ, N^2-(biphenyl-4-ylcarbonyl)-N^1-[4-(dimethylamino)benzyl]-L-α-glutamine]",13,> 200,1.6,72,34,,0.1,> 50,,,no inh
"C=Cc1cccc(CNC(=O)[C@H](CCC(=O)O)NC(=O)c2ccc(-c3ccccc3)cc2)c1 [Example 10M, N^2-(1,1′-biphenyl-4-ylcarbonyl)-N^1-(3-vinylbenzyl)-L-α-glutamine]",> 20,> 200,1.1,67,35,~20,0.043,> 50,0.054,,
